Read-outs that look alike come from different tables or passages of the source.
What was measured:
EZH1 = target: T1, EZH1 (Homo sapiens, UniProt Q92800); assay: Inhibitory activity against EZH1 methyltransferase (radiometric scintillation proximity assay); assay type: biochemical; details: 2.3 nmol/L enzyme, 90 minutes, room temperature;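 further: Read-out is methylation of a substrate peptide, captured on streptavidin-coated SPA beads and counted by scintillation, in Tris-HCl buffer at pH 8.0 with 1% DMSO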
T1 construct: purchased Reaction Biology Corp. (contract assay)
T1 sequence (Q92800 whole entry): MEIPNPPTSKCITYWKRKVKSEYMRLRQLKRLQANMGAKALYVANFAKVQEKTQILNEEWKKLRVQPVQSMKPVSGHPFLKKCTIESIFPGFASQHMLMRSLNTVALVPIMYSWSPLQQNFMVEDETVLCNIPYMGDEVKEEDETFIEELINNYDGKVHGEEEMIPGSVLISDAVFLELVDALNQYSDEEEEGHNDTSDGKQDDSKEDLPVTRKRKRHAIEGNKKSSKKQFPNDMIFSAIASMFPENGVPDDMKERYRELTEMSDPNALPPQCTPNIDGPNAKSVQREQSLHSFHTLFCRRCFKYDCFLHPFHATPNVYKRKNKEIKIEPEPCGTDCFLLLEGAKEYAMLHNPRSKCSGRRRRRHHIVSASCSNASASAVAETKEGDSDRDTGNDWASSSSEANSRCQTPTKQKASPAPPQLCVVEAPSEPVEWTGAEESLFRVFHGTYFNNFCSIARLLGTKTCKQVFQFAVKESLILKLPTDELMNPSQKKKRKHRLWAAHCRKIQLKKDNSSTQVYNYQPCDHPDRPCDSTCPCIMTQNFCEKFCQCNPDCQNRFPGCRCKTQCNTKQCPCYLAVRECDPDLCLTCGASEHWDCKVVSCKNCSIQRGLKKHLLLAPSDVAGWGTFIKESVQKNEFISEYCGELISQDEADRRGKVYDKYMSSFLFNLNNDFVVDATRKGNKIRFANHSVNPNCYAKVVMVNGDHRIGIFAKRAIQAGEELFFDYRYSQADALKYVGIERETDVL
T1 sequence (O75530 whole entry partner): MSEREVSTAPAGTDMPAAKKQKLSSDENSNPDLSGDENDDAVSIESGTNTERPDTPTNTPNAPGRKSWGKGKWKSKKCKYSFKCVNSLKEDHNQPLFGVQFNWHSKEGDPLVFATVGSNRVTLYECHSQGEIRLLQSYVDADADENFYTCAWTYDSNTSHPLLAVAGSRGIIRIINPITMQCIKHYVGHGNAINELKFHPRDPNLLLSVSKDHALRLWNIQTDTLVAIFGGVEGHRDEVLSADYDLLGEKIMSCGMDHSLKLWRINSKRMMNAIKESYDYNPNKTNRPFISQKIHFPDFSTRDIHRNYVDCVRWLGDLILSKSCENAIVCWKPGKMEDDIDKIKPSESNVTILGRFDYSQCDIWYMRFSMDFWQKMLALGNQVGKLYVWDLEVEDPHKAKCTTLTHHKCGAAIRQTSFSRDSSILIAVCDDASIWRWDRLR
T1 sequence (Q15022 whole entry partner): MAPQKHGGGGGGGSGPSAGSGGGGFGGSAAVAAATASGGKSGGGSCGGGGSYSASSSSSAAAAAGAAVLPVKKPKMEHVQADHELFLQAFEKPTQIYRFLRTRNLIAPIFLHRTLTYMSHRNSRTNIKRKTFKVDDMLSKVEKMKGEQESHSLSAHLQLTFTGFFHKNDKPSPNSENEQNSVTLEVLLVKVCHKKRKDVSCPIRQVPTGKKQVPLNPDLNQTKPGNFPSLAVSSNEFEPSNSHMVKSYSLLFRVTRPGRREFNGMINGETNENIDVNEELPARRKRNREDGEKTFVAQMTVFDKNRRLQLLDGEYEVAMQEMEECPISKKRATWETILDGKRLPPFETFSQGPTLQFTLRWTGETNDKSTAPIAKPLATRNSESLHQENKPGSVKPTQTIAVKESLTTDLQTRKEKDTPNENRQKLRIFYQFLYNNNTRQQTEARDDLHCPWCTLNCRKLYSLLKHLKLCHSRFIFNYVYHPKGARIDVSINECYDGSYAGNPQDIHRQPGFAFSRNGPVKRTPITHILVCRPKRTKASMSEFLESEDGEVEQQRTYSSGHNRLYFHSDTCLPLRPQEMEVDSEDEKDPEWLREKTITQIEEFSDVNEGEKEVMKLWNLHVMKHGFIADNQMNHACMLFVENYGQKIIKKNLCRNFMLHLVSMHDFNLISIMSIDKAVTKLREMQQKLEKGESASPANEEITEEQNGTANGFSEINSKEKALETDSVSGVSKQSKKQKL
T1 sequence (Q09028 whole entry partner): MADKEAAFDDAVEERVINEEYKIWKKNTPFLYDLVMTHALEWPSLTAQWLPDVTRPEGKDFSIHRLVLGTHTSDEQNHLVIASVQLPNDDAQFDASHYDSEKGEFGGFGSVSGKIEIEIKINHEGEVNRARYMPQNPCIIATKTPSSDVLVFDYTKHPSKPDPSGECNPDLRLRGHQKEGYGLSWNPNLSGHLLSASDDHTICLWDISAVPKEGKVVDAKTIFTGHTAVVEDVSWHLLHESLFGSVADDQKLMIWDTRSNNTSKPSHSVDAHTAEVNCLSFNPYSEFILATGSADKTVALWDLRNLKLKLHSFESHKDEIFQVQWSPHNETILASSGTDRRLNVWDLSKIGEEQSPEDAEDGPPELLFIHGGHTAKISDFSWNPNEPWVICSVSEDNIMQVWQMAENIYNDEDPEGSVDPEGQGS
T1 sequence (Q6ZN18 whole entry partner): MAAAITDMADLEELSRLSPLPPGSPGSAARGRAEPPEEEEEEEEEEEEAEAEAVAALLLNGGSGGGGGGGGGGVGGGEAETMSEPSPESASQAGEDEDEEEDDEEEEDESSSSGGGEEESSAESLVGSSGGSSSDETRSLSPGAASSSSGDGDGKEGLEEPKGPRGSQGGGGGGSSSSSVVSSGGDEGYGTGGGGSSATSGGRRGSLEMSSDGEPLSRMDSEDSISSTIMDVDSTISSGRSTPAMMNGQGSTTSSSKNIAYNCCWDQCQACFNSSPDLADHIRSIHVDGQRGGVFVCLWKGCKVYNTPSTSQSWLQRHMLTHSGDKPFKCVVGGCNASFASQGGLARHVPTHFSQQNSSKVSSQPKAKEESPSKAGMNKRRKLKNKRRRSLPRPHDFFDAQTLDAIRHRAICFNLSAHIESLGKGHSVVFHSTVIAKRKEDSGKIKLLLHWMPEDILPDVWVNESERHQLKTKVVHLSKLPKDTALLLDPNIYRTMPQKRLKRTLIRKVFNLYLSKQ

[1] = tested on: KARPAS-422 (EZH2 Y641N mutation); assay: Cell growth inhibition test, KARPAS-422; assay type: cell-based; details: KARPAS-422, culture time 7 days, read-out: Cell growth inhibitory activity (GI50, nM) KARPAS-422 (EZH2 Y641N mutation)
Protocol: Each type of the cultured cells was seeded in 6-well plates or 48-96 well plates, and subculture or medium replacement was performed every 3 to 4 days. Next, the cells were subcultured for a total of 7 to 14 days, and then seeded in 96-well plates. 3 to 5 days before the measurement of the effect, the cells were seeded in 96-well plates, and then the absorbance (Tz) on the day of seeding was measured. The absorbance after the reaction was measured by the plate reader device Synergy NeoAlpha (Biotek) using Cell-Titer-Glo Cell Viability Assay (Promega, G7573) according to the attached manual. Based on the absorbance (Tz) measured on the seeding day and the absorbance of each of the DMSO-treated group (C) and the sample-added group (Ti) measured on the day of effect determination, the percentage of cell proliferation inhibition was calculated according to the following Equation 1. [(Ti−Tz)/(C−Tz)]×100 for concentrations for which Ti≥Tz […] for concentrations for which Ti<Tz. [Equation 1]

[2] = Metabolic stability in human liver microsomes; assay type: in vitro ADME; details: 5 μM compound, 1 mg/mL human liver microsomes, 37° C., NADPH regenerating system
Protocol: (§1) In order to confirm the metabolic stability of the synthetic compounds in the liver, 5 μM test compound and 1 mg/mL human, dog, rat or mouse liver microsomes were allowed to react with each other at 37° C. in the presence of the NADPH regenerating system for 1 hour. After 1 hour, the reaction was terminated and the supernatant obtained by centrifugation was analyzed by HPLC. With the peak value obtained as the analysis result, the residual amount (%) was calculated using the following equation through the peak value of the test compound after 1 hour of the reaction versus the peak value of the test compound at 0 min. Residual amount (%)=(peak value of test compound after 1 hour of reaction/peak value of test compound at 0 min)×100

[3] = Metabolic stability in mouse liver microsomes; assay type: in vitro ADME; details: 5 μM compound, 1 mg/mL mouse liver microsomes, 37° C., NADPH regenerating system
Protocol: as §1

EZH2 = EZH2 (Homo sapiens, UniProt Q15910); assay: Inhibitory activity against EZH2 methyltransferase (radiometric scintillation proximity assay); details: Enzyme inhibitory activity (IC50, nM) EZH2, 2.3 nmol/L enzyme, 90 minutes, room temperature;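 further: Read-out is substrate peptide methylation, captured on streptavidin-coated SPA beads and counted by scintillation, with the reaction run in Tris-HCl buffer at pH 8.0 containing 1% DMSO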
EZH2, sequence (Q15910 whole entry): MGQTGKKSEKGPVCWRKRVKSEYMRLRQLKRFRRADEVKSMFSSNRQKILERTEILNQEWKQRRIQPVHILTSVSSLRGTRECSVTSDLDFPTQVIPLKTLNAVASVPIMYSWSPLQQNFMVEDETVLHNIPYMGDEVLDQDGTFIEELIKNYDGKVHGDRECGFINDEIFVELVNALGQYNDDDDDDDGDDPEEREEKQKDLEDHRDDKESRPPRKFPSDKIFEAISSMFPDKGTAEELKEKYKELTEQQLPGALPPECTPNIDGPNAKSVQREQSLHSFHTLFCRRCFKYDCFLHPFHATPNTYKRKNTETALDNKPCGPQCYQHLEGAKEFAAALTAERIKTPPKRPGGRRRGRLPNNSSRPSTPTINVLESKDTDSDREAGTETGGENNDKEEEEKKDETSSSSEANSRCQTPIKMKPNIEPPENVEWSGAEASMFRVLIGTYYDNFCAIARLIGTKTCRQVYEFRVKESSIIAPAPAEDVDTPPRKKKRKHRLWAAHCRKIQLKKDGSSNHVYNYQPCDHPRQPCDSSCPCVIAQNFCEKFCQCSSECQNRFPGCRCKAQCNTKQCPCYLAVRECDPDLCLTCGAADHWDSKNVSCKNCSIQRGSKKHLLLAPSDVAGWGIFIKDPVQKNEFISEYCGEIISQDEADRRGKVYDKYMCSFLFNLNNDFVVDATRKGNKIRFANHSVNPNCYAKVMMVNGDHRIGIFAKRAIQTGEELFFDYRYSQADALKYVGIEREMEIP
EZH2, sequence (O75530 whole entry partner): as the sequence (O75530 whole entry partner) above
EZH2, sequence (Q15022 whole entry partner): as the sequence (Q15022 whole entry partner) above
EZH2, sequence (Q09028 whole entry partner): as the sequence (Q09028 whole entry partner) above
EZH2, sequence (Q6ZN18 whole entry partner): as the sequence (Q6ZN18 whole entry partner) above

[4] = Homo sapiens, KARPAS-422, 168 h

SMILES	IC50 (EZH1) [nM]	GI50 [1, 4] [nM]	Residual amount (%) of test compound after 1 hour of reaction, Human [2] [%]	Residual amount (%) of test compound after 1 hour of reaction, Mouse [3] [%]	IC50 (EZH2) [nM]	GI50 [1] [nM]
C#Cc1c2c(c(C)c3c1OC(C)([C@H]1CC[C@H](N(C)C)CC1)O3)C(=O)N(Cc1c(C)cc(C)[nH]c1=O)CC2 (stereo partly drawn) [Compound 53, 6-((4,6-dimethyl-2-oxo-1,2-dihydropyridin-3-yl)methyl)-2-(trans-4-(dimethylamino)cyclohexyl)-9-ethynyl-2,4-dimethyl-7,8-dihydro-[1,3]dioxolo[4,5-g]isoquinolin-5(6H)-one]	27 to 139	5.1 to 14	67	85	4.5 to 9.1	–
Cc1cc(C)c(CN2CCc3c(Cl)c4c(c(C)c3C2=O)OC(C)(C[C@H]2CC[C@H](N(C)C)CC2)O4)c(=O)[nH]1 (stereo partly drawn) [Compound 21, 9-chloro-6-((4,6-dimethyl-2-oxo-1,2-dihydropyridin-3-yl)methyl)-2-((trans-4-(dimethylamino)cyclohexyl)methyl)-2,4-dimethyl-7,8-dihydro-[1,3]dioxolo[4,5-g]isoquinolin-5(6H)-one]	137	75	–	–	7.2	–
Cc1cc(C)c(CN2CCc3c(Cl)c4c(c(C)c3C2=O)OC(C)(C2CCN(CC(F)(F)F)CC2)O4)c(=O)[nH]1 (stereo not shown) [Compound 31, 9-chloro-6-((4,6-dimethyl-2-oxo-1,2-dihydropyridin-3-yl)methyl)-2,4-dimethyl-2-(1-(2,2,2-trifluoroethyl)piperidin-4-yl)-7,8-dihydro-[1,3]dioxolo[4,5-g]isoquinolin-5(6H)-one]	51	231	–	–	3.8	–
Cc1cc(C)c(CN2CCc3c(C)c4c(c(C)c3C2=O)OC(C)([C@H]2CC[C@H](N(C)C)CC2)O4)c(=O)[nH]1 (single isomer, unassigned) [Compound 41, 6-((4,6-dimethyl-2-oxo-1,2-dihydropyridin-3-yl)methyl)-2-(trans-4-(dimethylamino)cyclohexyl)-2,4,9-trimethyl-7,8-dihydro-[1,3]dioxolo[4,5-g]isoquinolin-5(6H)-one]	> 1000	–	53	63	69	69
Cc1cc(C)c(CN2CCc3c(C#N)c4c(c(C)c3C2=O)OC(C)([C@H]2CC[C@H](N(C)C)CC2)O4)c(=O)[nH]1 (stereo partly drawn) [Compound 69, 6-((4,6-dimethyl-2-oxo-1,2-dihydropyridin-3-yl)methyl)-2-(trans-4-(dimethylamino)cyclohexyl)-2,4-dimethyl-5-oxo-5,6,7,8-tetrahydro-[1,3]dioxolo[4,5-g]isoquinolin-9-carbonitrile]	65	10	–	–	2.7	–
Cc1cc(C)c(CN2CCc3c(Cl)c4c(c(Cl)c3C2=O)OC(C)([C@H]2CC[C@H](N(C)C)CC2)O4)c(=O)[nH]1 (stereo partly drawn) [Compound 7, 4,9-dichloro-6-((4,6-dimethyl-2-oxo-1,2-dihydropyridin-3-yl)methyl)-2-(trans-4-(dimethylamino)cyclohexyl)-2-methyl-7,8-dihydro-[1,3]dioxolo[4,5-g]isoquinolin-5(6H)-one]	54	4.8	–	–	3.8	–
Cc1cc(C)c(CN2CCc3c(Cl)c4c(c(C)c3C2=O)OC(C)(C2CCN(C)CC2)O4)c(=O)[nH]1 (stereo not shown) [Compound 29, 9-chloro-6-((4,6-dimethyl-2-oxo-1,2-dihydropyridin-3-yl)methyl)-2,4-dimethyl-2-(1-methylpiperidin-4-yl)-7,8-dihydro-[1,3]dioxolo[4,5-g]isoquinolin-5(6H)-one]	136	51	–	–	5	–
Cc1cc(C)c(CN2CCc3c(Cl)c4c(c(C)c3C2=O)OC(C)(C2CCOCC2)O4)c(=O)[nH]1 (stereo not shown) [Compound 24, 9-chloro-6-((4,6-dimethyl-2-oxo-1,2-dihydropyridin-3-yl)methyl)-2,4-dimethyl-2-(tetrahydro-2H-pyran-4-yl)-7,8-dihydro-[1,3]dioxolo[4,5-g]isoquinolin-5(6H)-one]	34	62	–	–	3	–
Cc1cc(C)c(CN2CCc3c(Cl)c4c(c(C)c3C2=O)OC(C)(C[C@H]2CC[C@H](N)CC2)O4)c(=O)[nH]1 (stereo partly shown) [Compound 20]	48	18	–	–	3.7	–
Cc1cc(C)c(CN2CCc3c(Cl)c4c(c(C)c3C2=O)OC(C)(C2CCNCC2)O4)c(=O)[nH]1 (stereo not shown) [Compound 28, 9-chloro-6-((4,6-dimethyl-2-oxo-1,2-dihydropyridin-3-yl)methyl)-2,4-dimethyl-2-(piperidin-4-yl)-7,8-dihydro-[1,3]dioxolo[4,5-g]isoquinolin-5(6H)-one]	55	14	–	–	3.2	–
C=Cc1c2c(c(C)c3c1OC(C)([C@H]1CC[C@H](N(C)C)CC1)O3)C(=O)N(Cc1c(C)cc(C)[nH]c1=O)CC2 (stereo partly drawn) [Compound 52, 6-((4,6-dimethyl-2-oxo-1,2-dihydropyridin-3-yl)methyl)-2-(trans-4-(dimethylamino)cyclohexyl)-2,4-dimethyl-9-vinyl-7,8-dihydro-[1,3]dioxolo[4,5-g]isoquinolin-5(6H)-one]	32 to 55	4.4 to 9.7	62	61	3.4 to 3.7	–
Cc1cc(C)c(CN2CCc3c(Cl)c4c(c(C)c3C2=O)OC(C)(CCCCN(C)C)O4)c(=O)[nH]1 (stereo not shown) [Compound 26, 9-chloro-6-((4,6-dimethyl-2-oxo-1,2-dihydropyridin-3-yl)methyl)-2-(4-(dimethylamino)butyl)-2,4-dimethyl-7,8-dihydro-[1,3]dioxolo[4,5-g]isoquinolin-5(6H)-one]	85	99	–	–	6.2	–
Cc1cc(C)c(CN2CCc3c(Cl)c4c(c(C)c3C2=O)OC(C)([C@H]2CC[C@H](N(C)C)CC2)O4)c(=O)[nH]1 (single isomer, unassigned) [Compound 11, 9-chloro-6-((4,6-dimethyl-2-oxo-1,2-dihydropyridin-3-yl)methyl)-2-(trans-4-(dimethylamino)cyclohexyl)-2,4-dimethyl-7,8-dihydro-[1,3]dioxolo[4,5-g]isoquinolin-5(6H)-one]	> 1000	–	37	70	116 to 473	≥ 563
Cc1cc(C)c(CN2CCc3c(C)c4c(c(Cl)c3C2=O)OC(C)([C@H]2CC[C@H](N(C)C)CC2)O4)c(=O)[nH]1 (single isomer, unassigned) [Compound 5, 4-chloro-6-((4,6-dimethyl-2-oxo-1,2-dihydropyridin-3-yl)methyl)-2-(trans-4-(dimethylamino)cyclohexyl)-2,9-dimethyl-7,8-dihydro-[1,3]dioxolo[4,5-g]isoquinolin-5(6H)-one]	16	–	89	78	1.3	2.4
Cc1cc(C)c(CN2CCc3c(Cl)c4c(c(C)c3C2=O)OC(C)([C@H]2CC[C@H](N3CCCCC3)CC2)O4)c(=O)[nH]1 (stereo partly drawn) [Compound 17, 9-chloro-6-((4,6-dimethyl-2-oxo-1,2-dihydropyridin-3-yl)methyl)-2,4-dimethyl-2-(trans-4-(piperidin-1-yl)cyclohexyl)-7,8-dihydro-[1,3]dioxolo[4,5-g]isoquinolin-5(6H)-one]	74	52	–	–	5.6	–

Source: patent publication US12344618B2, “Heterotricyclic derivative compound and use of same” (HANMI PHARMACEUTICAL CO., LTD., priority 2019, dated 2025)
